{"source": "patent US9867794B2", "about": "“Regulation of osteopontin” (Pathologica LLC, priority 2007, dated 2018)", "type_in_all_cases": "cell-based, human", "key": {"IL10": {"test_system": "IL10", "assay": "Microarray analysis of mononuclear cells, IL10 probe", "conditions": "presence of MGBG, all samples", "method": "Blood samples were obtained from HIV infected patients (N=9) with positive viral load and reduced CD4 counts, and non-HIV infected, healthy controls (N=6). Blood was collected into heparin anticoagulant tubes and mononuclear cells were isolated by Percoll gradient centrifugation. The cells from each sample were split into 2: one-half receives MGBG at concentration of 10 μM and the other half received no treatment. All samples were then cultured overnight in RPMI media with 10% fetal bovine serum at 37° C. under non-adherent conditions. The next day cells were collected by centrifugation, washed one time with PBS, and lysed by resuspension in TRIZOL, and total RNA was prepared according to manufacturer's instructions (Invitrogen, Carlsbad, Calif.). […] The RNA was then amplified for microarray analysis using a 2 cycle amplification protocol according to the manufacturer's instructions (Affymetrix, Santa Clara, Calif.). The amplified RNAs were then hybridized to Human Genome U133 plus 2.0 microarrays (Affymetrix) and expression data was obtained using an Affymetrix scanner and GCOS protocols. Microarray data was analyzed with GeneSpring Microarray Suite. Results were normalized using a set of 100 probe sets determined by the manufacturer to have relatively invariant expression across most cell types."}, "CD14+ cells": {"test_system": "CD14+ cells", "assay": "Yield of CD14+ cells in culture, flow cytometry", "conditions": "10 μM MGBG; for % Reduction 14, Average: 5th day"}, "CD14/16++ cells": {"test_system": "CD14/16++ cells", "assay": "Yield of CD14/16++ cells in culture, flow cytometry", "conditions": "10 μM MGBG; for % Reduction 14/16, Average: 5th day"}, "adenosine deaminase": {"test_system": "adenosine deaminase", "assay": "QRT-PCR in CD14/CD16-separated cell fractions, adenosine deaminase RNA", "conditions": "10 μM MGBG", "method": "The changes induced by MGBG in different blood cell types were determined for osteopontin and adenosine deaminase and 7 other genes. For this experiment, blood samples were obtained from 6 healthy controls (3 men/3 women from 20 to 55 years of age) and mononuclear cells were isolated via Percoll gradient centrifugation. The cells were then incubated for 3 hours in RPMI media plus 10% fetal bovine serum at 37 C. At that point MGBG was added to 10 μM to half of each sample and then the cells were incubated at 37 C for 20 more hours. The cells were then bound to magnetic beads coated with antibodies to human CD16. Bound cells (CD16 expressing) were separated from unbound cells using an AutoMACs according to manufacturer's instructions (Miltenyi, Auburn Calif.). Then CD16+ cells are released from the magnetic beads and both the CD16+ and CD16− cells are combined with magnetic beads coated with antibodies to human CD14. Antibody bound and unbound cells were then separated using the AutoMACs machine. […] Cells that neither express CD16 nor CD14 (the −/− Cells). This is mostly T lymphocytes; 2. Cells that only express CD16. This includes contaminating granulocytes not removed by Percoll centrifugation and CD16+ monocytes with very low CD14 expression; 3. Cells that express both CD16 and CD14. This includes monocytes that are expressing CD16+ and macrophages (which express high levels of both); and 4. Cells that only express CD14. This would include most normal human monocytes. After separation, cells of each fraction are washed with PBS and the number of viable cells determined by trypan blue exclusion. RNA is then prepared from each cell group using TRIZOL, according to manufacturer's instructions."}, "PBMCs": {"test_system": "PBMCs", "assay": "Cell viability of PBMC cultures when CCS were collected", "conditions": "each MGBG concentration (0.1-100 μM), when the CCS were collected"}, "SGNE3": {"test_system": "SGNE3", "assay": "Quantitative RT-PCR, unsorted mononuclear cells, SGNE3", "method": "To evaluate the effect of MGBG on gene expression, blood samples were obtained from patients (N=18, 10 HIV-infected and 8 Healthy Controls). Mononuclear cells were isolated via Percoll gradient centrifugation. The cells were split into two tubes, one treated with 10 μM of MGBG and the other non-treated. The cells were then cultured overnight in RPMI media plus 10% fetal bovine serum at 37 C under non-adherent conditions, collected, lysed using Trizol solution, and total RNA prepared according to manufacturer's instructions (Invitrogen, Carlsbad, Calif.).\nApproximately 200 ng of total RNA prepared from each sample was converted to cDNA using the First Strand cDNA Synthesis Kit for RT-PCR [AMV] kit (Roche Applied Diagnostics, Indianapolis, Ind.) according to manufacturer's instructions. Around 5 ng of cDNA sample was then used for PCR performed on a LightCycler (Roche Applied Diagnostics, Indianapolis, Ind.) using the LightCycler FastStart DNA Master SYBR Green I kit. PCR conditions are as follows: 1 cycle of denaturation at 95° C. for 10 minutes, followed by 45 cycles of 95° C. for 10 seconds, 68° C. for 10 seconds, and 72° C. for 16 seconds.\nThe sequences of gene-specific primers evaluated are listed below. All samples were also amplified with the human β-actin LightCycler-Primer set (Roche Diagnostics)."}, "[1]": {"conditions": "5th day of culture, individual donor samples (HIV or healthy)"}, "[2]": {"conditions": "10 μM MGBG, all unsorted samples"}}, "note": "Where “and” joins values, the source holds several entries; their conditions need not be identical. Equal entries are not always repeated."}
{"smiles": "CC(/C=N/NC(=N)N)=N\\NC(=N)N", "note": "[MGBG, 1,1′ [methylethanediylidene]dinitrilodiguanidine]", "values": [{"measurement": "average change in IL10 signal, upregulated", "setting": "IL10", "result": 5.6, "unit": "fold"}, {"measurement": "% Reduction 14", "setting": "CD14+ cells; [1]", "result": "26% (2×) and 21% and 53% and 76% and 31% and <0% and 58%"}, {"measurement": "% Reduction 14, Average", "setting": "CD14+ cells; average of HIV samples", "result": 46.8, "unit": "%"}, {"measurement": "% Reduction 14, Average", "setting": "CD14+ cells; average of healthy samples", "result": 28.5, "unit": "%"}, {"measurement": "% Reduction 14/16", "setting": "CD14/16++ cells; [1]", "result": "26% and 53% and 91% and 54% and 61% and <0% and 71%"}, {"measurement": "% Reduction 14/16, Average", "setting": "CD14/16++ cells; average of HIV samples", "result": 60.3, "unit": "%"}, {"measurement": "% Reduction 14/16, Average", "setting": "CD14/16++ cells; average of healthy samples", "result": 57.5, "unit": "%"}, {"measurement": "ADA transcription median change (increase)", "setting": "adenosine deaminase; CD14+ monocytes, p=0.0156", "result": 10.8, "unit": "fold"}, {"measurement": "ADA transcription median change (increase)", "setting": "adenosine deaminase; CD14/CD16++ cells", "result": 2.8, "unit": "fold"}, {"measurement": "ADA transcription change", "setting": "adenosine deaminase; Double negative cells and CD16+ cells", "result": "did not change significantly"}, {"measurement": "cell viability", "setting": "PBMCs", "result": "at least 75%"}, {"measurement": "Fold change SGNE3 by QRT-PCR", "setting": "SGNE3; 10 μM MGBG overnight, untreated vs treated, negative = fold reduction, individual samples", "result": "1.58 fold and −3.25 fold and −1.30 fold and −2.39 fold and −2.43 fold and −1.48 fold and 1.61 fold and −3.61 fold and −1.66 fold and −1.13 fold and 1.79 fold and −7.11 fold and −2.50 fold and −4.41 fold"}, {"measurement": "Fold change SGNE3, AVERAGE", "setting": "SGNE3; [2]", "result": "−1.9", "unit": "fold"}, {"measurement": "Fold change SGNE3, MAX", "setting": "SGNE3; [2]", "result": 1.8, "unit": "fold"}, {"measurement": "Fold change SGNE3, MIN", "setting": "SGNE3; [2]", "result": "−7.1", "unit": "fold"}, {"measurement": "SGNE3 regulation by MGBG", "setting": "SGNE3; level of inhibition in most samples is low", "result": "mostly down-regulated"}, {"measurement": "SGNE3 % >2 fold Changed", "setting": "SGNE3; share of samples, 10 μM MGBG", "result": 50, "unit": "%"}]}
